This note sets out measurements from patent US12509444B2, “Compounds and methods for CD73 modulation and indications therefor” (Plexxikon Inc., priority 2019, dated 2025).

Molecules are shown by their SMILES.

This test concerns the target T1, Human CD73 (amino acid residues 27-549) (Homo sapiens, UniProt P21589).
T1 construct: Human CD73 (amino acid residues 27-549); His tag (N); made in house; host or cells: E. coli
T1 sequence (P21589 27-549): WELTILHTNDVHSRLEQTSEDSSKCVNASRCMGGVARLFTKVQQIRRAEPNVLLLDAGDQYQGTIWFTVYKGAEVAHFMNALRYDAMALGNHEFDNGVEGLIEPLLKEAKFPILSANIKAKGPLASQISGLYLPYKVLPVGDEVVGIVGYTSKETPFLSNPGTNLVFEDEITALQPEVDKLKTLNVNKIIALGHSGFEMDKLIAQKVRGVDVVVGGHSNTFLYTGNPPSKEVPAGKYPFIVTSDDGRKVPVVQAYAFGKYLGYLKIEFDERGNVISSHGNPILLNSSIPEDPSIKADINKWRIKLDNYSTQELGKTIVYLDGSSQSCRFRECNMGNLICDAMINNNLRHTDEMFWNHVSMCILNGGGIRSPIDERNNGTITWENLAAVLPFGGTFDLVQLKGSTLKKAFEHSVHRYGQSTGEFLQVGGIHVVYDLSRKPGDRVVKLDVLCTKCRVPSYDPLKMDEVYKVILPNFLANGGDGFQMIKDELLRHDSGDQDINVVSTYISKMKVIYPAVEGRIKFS
The test is described as follows: CD73 enzymatic assay (luciferase-based indirect assay, CellTiter-Glo). The settings on record: 0.4 nM CD73, 150 μM AMP, 1 hour at room temperature. It counts as biochemical. How it is done:
CD73 enzymatic activity was measured in a luciferase-based indirect assay using CellTiter-Glo® system from Promega. The luciferase reaction in the presence of ATP is inhibited by AMP, a primary substrate of CD73. Addition of CD73 enzyme to the reaction converts AMP to adenosine, and release the inhibition, producing a luminescent signal. Inhibition of CD73 leads to the decrease of this luminescent signal.
Human CD73 (amino acid residues 27-549) with N-Terminal His tag was purified in E. coli. All the assay components were prepared in 50 mM HEPEs buffer (pH 7.4) with 0.01% Tween® 20. The CD73 enzymatic assay was performed using 0.4 nM CD73 and 150 μM AMP. 9.5 μL of CD73 protein and 9.5 μL of AMP were added to the wells of a 384 well plate containing 1 μL of various concentrations of test compound or DMSO vehicle and incubated for 1 hour at room temperature. 16 wells containing CD73, AMP and 5% DMSO served as high control. 16 wells containing AMP and 5% DMSO served as low control. Enzymatic reaction was stopped and AMP level was measured indirectly by adding 5 μL of CellTiter-Glo® 2.0 reagent and 5 μL of ATP with a final concentration of 1 μM. Following incubation of the plate at room temperature for 30 minutes, luminescent signal was read on a Tecan plate reader. The percentage inhibition at individual concentrations relative to high and low controls was calculated. The data were analyzed by using nonlinear regression to generate IC50 values.
(In general: ATP-based viability assays read luminescence as a measure of living cells.)
Broadly, the IC50 is the concentration at which inhibition is half-maximal. Low readings indicate greater potency in that assay, high ones weaker potency in that assay. `O=C(Nc1ccc(OC(F)(F)F)cc1)N[C@@H]1CCN(c2cn[nH]c(=O)c2Cl)C1` [P-0041, (R)-1-(1-(5-chloro-6-oxo-1,6-dihydropyridazin-4-yl)pyrrolidin-3-yl)-3-(4-(trifluoromethoxy)phenyl)urea] showed a 50% inhibitory concentration (IC50) of 0.001 to 10 µM.

`N#Cc1ccc(NC(=O)N[C@@H]2CCN(c3cn[nH]c(=O)c3Cl)C2)cc1` [P-0042, (R)-1-(1-(5-chloro-6-oxo-1,6-dihydropyridazin-4-yl)pyrrolidin-3-yl)-3-(4-cyanophenyl)urea] showed a concentration for half-maximal inhibition (IC50) of 0.001 to 10 µM.

Consider `O=C(Nc1ccc(C(F)(F)F)cc1)N[C@@H]1CCN(c2cn[nH]c(=O)c2Cl)C1` [P-0043, (R)-1-(1-(5-chloro-6-oxo-1,6-dihydropyridazin-4-yl)pyrrolidin-3-yl)-3-(4-(trifluoromethyl)phenyl)urea], for which the half-inhibitory concentration (IC50) lay within 0.001 to 10 µM.

For the compound `O=C(Nc1cccc(OC(F)F)c1)N[C@@H]1CCN(c2cn[nH]c(=O)c2Cl)C1` [P-0044, (R)-1-(1-(5-chloro-6-oxo-1,6-dihydropyridazin-4-yl)pyrrolidin-3-yl)-3-(3-(difluoromethoxy)phenyl)urea], the IC50 was 0.001 to 10 µM.

The compound `CN(C)c1ccc(NC(=O)N[C@@H]2CCN(c3cn[nH]c(=O)c3Cl)C2)cc1` [P-0045, (R)-1-(1-(5-chloro-6-oxo-1,6-dihydropyridazin-4-yl)pyrrolidin-3-yl)-3-(4-(dimethylamino)phenyl)urea] had an IC50 of 10 to 100 µM.

Compound `O=C(N[C@@H]1CCN(c2cn[nH]c(=O)c2Cl)C1)OCc1ccccc1` [P-0048, benzyl (R)-(1-(5-chloro-6-oxo-1,6-dihydropyridazin-4-yl)pyrrolidin-3-yl)carbamate] registered an IC50 of 10 to 100 µM.

For the compound `COc1ccc(OC(=O)N[C@@H]2CCN(c3cn[nH]c(=O)c3Cl)C2)cc1` [P-0049, 4-methoxyphenyl (R)-(1-(5-chloro-6-oxo-1,6-dihydropyridazin-4-yl)pyrrolidin-3-yl)carbamate], the IC50 lay within 0.001 to 10 µM.

Consider `CC(C)COC(=O)N[C@@H]1CCN(c2cn[nH]c(=O)c2Cl)C1` [P-0050, isobutyl (R)-(1-(5-chloro-6-oxo-1,6-dihydropyridazin-4-yl)pyrrolidin-3-yl)carbamate], for which the concentration for half-maximal inhibition (IC50) lay within 0.001 to 10 µM.

`O=C(NC1CC1)N[C@@H]1CCN(c2cn[nH]c(=O)c2Cl)C1` [P-0053, (R)-1-(1-(5-chloro-6-oxo-1,6-dihydropyridazin-4-yl)pyrrolidin-3-yl)-3-cyclopropylurea] yielded a half-maximal inhibitory concentration (IC50) of 0.001 to 10 µM.

Compound `O=C(N[C@@H]1CCN(c2cn[nH]c(=O)c2Cl)C1)OC1CCOC1` (stereo partly drawn) [P-0055, tetrahydrofuran-3-yl ((R)-1-(5-chloro-6-oxo-1,6-dihydropyridazin-4-yl)pyrrolidin-3-yl)carbamate] returned an IC50 of 0.001 to 10 µM.

Turning to `C[C@H]1CN(c2cn[nH]c(=O)c2Cl)C[C@@H]1NC(=O)OC(C)(C)C` [P-0060, tert-butyl ((3R,4S)-1-(5-chloro-6-oxo-1,6-dihydropyridazin-4-yl)-4-methylpyrrolidin-3-yl)carbamate], the IC50 was in the range of 0.001 to 10 µM.

`C[C@H]1CN(c2cn[nH]c(=O)c2Cl)C[C@@H]1NC(=O)NC1CCCC1` [P-0061, 1-((3R,4S)-1-(5-chloro-6-oxo-1,6-dihydropyridazin-4-yl)-4-methylpyrrolidin-3-yl)-3-cyclopentylurea] gave an IC50 of 0.001 to 10 µM.

Turning to `CN(C(=O)OC(C)(C)C)C1CCN(c2cn[nH]c(=O)c2Cl)C1` (stereo not drawn) [P-0066, tert-butyl (1-(5-chloro-6-oxo-1,6-dihydropyridazin-4-yl)pyrrolidin-3-yl)(methyl)carbamate], the IC50 fell in the range of 10 to 100 µM.

Compound `CN(C(=O)NC1CCCC1)C1CCN(c2cn[nH]c(=O)c2Cl)C1` (stereo not drawn) [P-0067, 1-(1-(5-chloro-6-oxo-1,6-dihydropyridazin-4-yl)pyrrolidin-3-yl)-3-cyclopentyl-1-methylurea] had an IC50 of 10 to 100 µM.

As to `CN(C(=O)NC1CCCCC1)C1CCN(c2cn[nH]c(=O)c2Cl)C1` (stereo not drawn) [P-0069, 1-(1-(5-chloro-6-oxo-1,6-dihydropyridazin-4-yl)pyrrolidin-3-yl)-3-cyclohexyl-1-methylurea], the IC50 is 0.001 to 10 µM.
